# From ChEMBL document CHEMBL3608297, “Structure-based de novo design and synthesis of aminothiazole-based p38 MAP kinase inhibitors” (Bioorg Med Chem Lett, 2015)
# Target: MAP kinase p38 (Homo sapiens, UniProt O15264+Q15759+Q16539+P53778)
# Assay: Inhibition of p38 MAP kinase (unknown origin) by biochemical assay
# Assay type: protein assay
row,Structure (SMILES),IC50 [µM]
1,O=C(c1cnc(Nc2ccccc2)s1)c1ccccc1Br,1.07
2,O=C(c1cnc(Nc2ccc(O)cc2)s1)c1ccccc1Cl,2.04
3,Nc1cccc(Nc2ncc(C(=O)c3ccccc3Cl)s2)c1,16.2
4,COc1cccc(C(=O)c2cnc(Nc3ccccc3)s2)c1,1.23
5,O=C(c1cccc(O)c1)c1cnc(Nc2ccccc2)s1,1.31
6,O=C(Nc1cccc(Nc2ncc(C(=O)c3ccccc3Cl)s2)c1F)c1ccccc1,1.98
7,O=C(c1ccccc1)c1cnc(Nc2ccccc2)s1,1.07
8,Cc1ccccc1C(=O)c1cnc(Nc2ccccc2)s1,116
9,O=C(c1cnc(Nc2ccc(Cl)cc2)s1)c1ccccc1Cl,0.91
10,O=C(c1cnc(Nc2cccc([N+](=O)[O-])c2)s1)c1ccccc1Cl,1.62
11,O=C(c1cnc(Nc2ccc(F)cc2)s1)c1ccccc1Cl,0.33
12,O=C(c1cnc(Nc2ccc(F)cc2F)s1)c1ccccc1Cl,0.18
13,Nc1ccc(Nc2ncc(C(=O)c3ccccc3Cl)s2)cc1,> 200
14,Nc1cccc(Nc2ncc(C(=O)c3ccccc3Cl)s2)c1F,0.45
15,O=C(c1cnc(Nc2ccccc2)s1)c1ccccc1Cl,0.61
16,O=C(c1cnc(Nc2ccc(O)cc2F)s1)c1ccccc1Cl,0.25
17,O=C(c1cnc(Nc2ccccc2F)s1)c1ccccc1Cl,0.79
18,O=C(Nc1cccc(Nc2ncc(C(=O)c3ccccc3Cl)s2)c1)c1ccccc1,1.2
19,COc1ccc(Nc2ncc(C(=O)c3ccccc3Cl)s2)cc1,1.44
20,O=C(c1cnc(Nc2cccc([N+](=O)[O-])c2F)s1)c1ccccc1Cl,12.7
21,O=C(c1cnc(Nc2ccc(Br)cc2)s1)c1ccccc1Cl,0.94
